Source: patent publication US11826430B2, “Anti-cancer nuclear hormone receptor-targeting compounds” (Nuvation Bio Inc., priority 2019, dated 2023)

Legend:
AR in LNCaP cytosol = AR in LNCaP cytosol (Homo sapiens (Human), UniProt P10275, T878A); assay: AR binding assay (3H-methyltrienolone displacement); details: read-out: AR IC50, 4° C. for 24 hours
Procedure: (§3) RBC HotSpot Poly(ADP-ribose) Polymerases 1 (PARP1) and Poly(ADP-ribose) Polymerases 2 (PARP2) Assays: The assay was conducted at Reaction Biology Corporation (RBC; Malvern, PA). The assay principle is radioisotope-based filter binding assay where incorporation of radioisotope-labeled NAD^+ into the substrate captured on filter is detected after washout free NAD^+. Data were analyzed using Excel and GraphPad Prism software for IC50 curve fits. Each assay was conducted with PJ34 as a positive control. PARP1 assay: Human recombinant PARP1 at a final concentration of 2.5 nM was combined with histone H4 (20 μM) and test articles at various concentrations in reaction buffer (50 mM Tris-HCL, pH 8.0, 50 mM NaCl, 10 mM MgCl2, 1 mM DTT, 1% DMSO, and 20 μg/mL activated DNA). The solution was inoculated for 20 min at room temperature and the reaction initiated by adding [adenylate-^32P]-Nicotinamide Adenine Dinucleotide, ^32P-NAD^+ at a final concentration of 10 μM. After incubation for 2 hrs at room temperature, the reaction mixture was filtered and washed with 0.75% phosphoric acid for radioactivity detection. • ii. PARP2 assay: Human recombinant PARP2 at a final concentration of 2.5 nM was combined with histone H3 (20 μM) and test articles at various concentrations in reaction buffer (50 mM Tris-HCL, pH 8.0, 50 mM NaCl, 10 mM MgCl2, 1 mM DTT, 1% DMSO, and 20 μg/mL activated DNA). The solution was inoculated for 20 min at room temperature and the reaction was initiated by adding [adenylate-^32P]-Nicotinamide Adenine Dinucleotide, ^32P-NAD^+ at a final concentration of 10 μM. After incubation for 2 hrs at room temperature, the reaction mixture was filtered and washed with 0.75% phosphoric acid for radioactivity detection. b. AR binding assay: AR in LNCaP cytosol was used for determining the binding affinity of test articles and the reference compound—progesterone (Sigma, Cat: E2785, St. Louis, MO). IC50s were determined using 8 concentrations/compound. Cytosol was plated at 200 μg/well (100 μL) into a 96-well conical polypropylene plate (Agilent, Cat: 5042-1385, Santa Clara, CA) and mixed with 3 μL of test compound. After adding 100 μL of ^3H-methyltrienolone (PerkinElmer, Cat: NET590250UC, San Jose, CA), the plate was sealed and shaken at 300 rpm at 4° C. for 24 hours. Post incubation, 100 μL of radioligand adsorption buffer containing 10 mM Tris-HCl, pH 7.4; 1.5 mM EDTA; 1 mM DTT; 0.25% charcoal; 0.0025% dextran was added to individual well. Plate was shaken for 15 min at 4° C. followed by centrifugation at 3000 rpm for 30 min at 4° C. 150 μL of supernatant was transferred into scint-tube (PerkinElmer, Cat: 6000192) and mixed with 2 mL of Ultima Gold Cocktail (PerkinElmer, Cat: 6013329). Radioactivity was counted using a TriCarb 2910 TR scintillation counter (PerkinElmer). Inhibition of the radioactivity by test articles were calculated using the equation below: % Inhibition=(1−(Assay well-Average_LC)/(Average_HC-Average_LC))×100%. IC50 values were calculated and graphed using the model “log(inhibitor) vs. response—Variable slope” included in GraphPad Prism 5 (San Diego, CA). […] Ki=IC50/(1+[L]/Kd) c.

Human recombinant PARP2 = Human recombinant PARP2 (Homo sapiens (Human), UniProt Q9UGN5); assay: RBC HotSpot PARP2 radioisotope-based filter binding assay; details: read-out: PARP2 IC50; 2.5 nM PARP2, histone H3, 10 μM 32P-NAD+
Human recombinant PARP2, sequence (Q9UGN5 whole entry): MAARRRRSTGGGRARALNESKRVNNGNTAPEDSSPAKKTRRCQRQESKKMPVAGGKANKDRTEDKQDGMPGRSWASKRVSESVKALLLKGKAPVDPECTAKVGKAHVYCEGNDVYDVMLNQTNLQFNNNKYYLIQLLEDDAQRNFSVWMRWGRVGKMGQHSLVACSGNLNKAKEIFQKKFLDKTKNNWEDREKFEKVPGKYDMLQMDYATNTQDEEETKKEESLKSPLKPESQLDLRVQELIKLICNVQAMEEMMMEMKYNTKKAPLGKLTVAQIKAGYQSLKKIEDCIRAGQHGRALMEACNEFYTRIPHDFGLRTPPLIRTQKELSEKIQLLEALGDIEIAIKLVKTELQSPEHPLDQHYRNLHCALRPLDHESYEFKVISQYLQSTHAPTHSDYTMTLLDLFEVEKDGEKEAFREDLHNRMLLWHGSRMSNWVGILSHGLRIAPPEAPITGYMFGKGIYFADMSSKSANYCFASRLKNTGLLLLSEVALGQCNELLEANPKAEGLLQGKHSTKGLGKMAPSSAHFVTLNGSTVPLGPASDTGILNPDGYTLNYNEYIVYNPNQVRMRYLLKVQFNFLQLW
Procedure: as §3

Human recombinant PARP1 = Human recombinant PARP1 (Homo sapiens (Human), UniProt P09874); assay: RBC HotSpot PARP1 radioisotope-based filter binding assay; details: read-out: PARP1 IC50; 2.5 nM PARP1, histone H4, 10 μM 32P-NAD+
Human recombinant PARP1, sequence (P09874 whole entry): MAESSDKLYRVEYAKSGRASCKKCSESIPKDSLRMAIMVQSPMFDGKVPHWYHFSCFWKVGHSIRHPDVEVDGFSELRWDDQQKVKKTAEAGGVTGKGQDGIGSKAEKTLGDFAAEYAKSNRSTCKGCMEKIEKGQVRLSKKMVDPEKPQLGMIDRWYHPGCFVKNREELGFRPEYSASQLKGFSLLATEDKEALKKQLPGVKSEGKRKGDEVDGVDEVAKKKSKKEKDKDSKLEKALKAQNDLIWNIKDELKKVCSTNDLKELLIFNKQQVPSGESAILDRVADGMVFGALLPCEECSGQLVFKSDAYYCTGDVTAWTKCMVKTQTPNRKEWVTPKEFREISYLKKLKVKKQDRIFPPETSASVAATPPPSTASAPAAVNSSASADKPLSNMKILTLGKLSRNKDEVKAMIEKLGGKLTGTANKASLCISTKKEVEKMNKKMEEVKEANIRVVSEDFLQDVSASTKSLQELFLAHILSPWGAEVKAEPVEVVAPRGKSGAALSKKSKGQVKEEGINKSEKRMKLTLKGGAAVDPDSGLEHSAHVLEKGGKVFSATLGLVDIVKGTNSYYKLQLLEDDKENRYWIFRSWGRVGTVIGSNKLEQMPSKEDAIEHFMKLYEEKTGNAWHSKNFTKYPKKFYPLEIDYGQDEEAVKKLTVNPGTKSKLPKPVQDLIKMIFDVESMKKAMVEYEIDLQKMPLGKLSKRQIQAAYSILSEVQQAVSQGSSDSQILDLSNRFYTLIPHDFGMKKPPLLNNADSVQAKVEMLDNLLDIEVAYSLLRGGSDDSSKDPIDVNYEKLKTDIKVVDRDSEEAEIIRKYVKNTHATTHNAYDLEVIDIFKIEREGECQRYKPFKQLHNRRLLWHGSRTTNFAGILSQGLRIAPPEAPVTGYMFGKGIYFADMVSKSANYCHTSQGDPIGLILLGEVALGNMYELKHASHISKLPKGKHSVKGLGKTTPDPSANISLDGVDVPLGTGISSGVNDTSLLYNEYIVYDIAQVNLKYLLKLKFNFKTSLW
Procedure: as §3

22RV1 cells = assay: Cell proliferation assay, CellTiter Glo; type: cell-based; details: Homo sapiens, 22Rv1, 72 h; cell growth inhibition, three days of treatment
Procedure: (§1) a. […] IC50s were determined using 8 concentrations/compound. […] Ki=IC50/(1+[L]/Kd) c.
(§2) Cells were plated at varying density in the respective growth medium in 96 well plates. 24 hr later, cells were treated, in triplicate or quadruplicate, with test articles prepared in a range of concentrations by series dilution of DMSO stock solutions in growth medium and incubated for three to seven days. The number of viable 22RV1 and HT-29 cells was measured using CellTiter Glo assay (CTG, Promega, Madison, WI) after three days of treatment. Cell viability data were plotted using GraphPad Prism (GraphPad Software, Inc., San Diego, CA). In addition, a nonlinear regression model with a sigmoidal dose response and variable slope within GraphPad Prism was used to calculate the IC50 value of individual test articles.

HT-29 cells = assay: Cell proliferation assay, CellTiter Glo; type: cell-based; details: Homo sapiens, HT-29, 72 h; cell growth inhibition, three days of treatment
Procedure: as §1, §2

AR in LNCaP cytosol, sequence (P10275 whole entry T878A): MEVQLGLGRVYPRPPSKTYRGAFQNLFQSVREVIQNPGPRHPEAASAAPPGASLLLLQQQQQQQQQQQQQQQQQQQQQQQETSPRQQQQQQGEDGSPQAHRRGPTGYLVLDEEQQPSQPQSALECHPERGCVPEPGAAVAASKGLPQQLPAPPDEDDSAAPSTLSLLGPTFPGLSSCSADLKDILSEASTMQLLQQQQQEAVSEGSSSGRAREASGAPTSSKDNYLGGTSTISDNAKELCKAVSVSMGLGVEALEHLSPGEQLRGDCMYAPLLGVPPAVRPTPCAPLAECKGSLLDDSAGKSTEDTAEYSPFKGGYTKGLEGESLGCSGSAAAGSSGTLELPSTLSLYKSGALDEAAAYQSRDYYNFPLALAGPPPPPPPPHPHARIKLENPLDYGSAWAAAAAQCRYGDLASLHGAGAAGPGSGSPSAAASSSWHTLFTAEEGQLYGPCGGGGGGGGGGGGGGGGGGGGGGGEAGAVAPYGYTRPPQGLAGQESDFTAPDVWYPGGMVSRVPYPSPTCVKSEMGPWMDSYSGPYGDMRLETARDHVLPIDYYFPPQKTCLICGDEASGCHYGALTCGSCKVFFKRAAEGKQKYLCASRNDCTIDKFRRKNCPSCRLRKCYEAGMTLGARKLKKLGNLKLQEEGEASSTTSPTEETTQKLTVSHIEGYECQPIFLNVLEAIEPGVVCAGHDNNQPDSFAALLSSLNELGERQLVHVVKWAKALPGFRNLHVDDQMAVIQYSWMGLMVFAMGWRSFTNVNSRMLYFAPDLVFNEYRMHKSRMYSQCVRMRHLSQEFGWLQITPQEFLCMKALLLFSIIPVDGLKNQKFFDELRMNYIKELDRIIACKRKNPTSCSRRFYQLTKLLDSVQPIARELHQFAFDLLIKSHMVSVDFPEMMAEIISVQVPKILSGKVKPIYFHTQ

SMILES	IC50 (AR in LNCaP cytosol) [µM]	IC50 (Human recombinant PARP2) [µM]	IC50 (Human recombinant PARP1) [µM]	IC50 (22RV1 cells) [µM]	IC50 (HT-29 cells) [µM]
C[C@](O)(CS(=O)(=O)C1CCN(C(=O)c2cc(Cc3n[nH]c(=O)c4ccccc34)ccc2F)CC1)C(=O)Nc1ccc(C#N)c(C(F)(F)F)c1 [Compound 1.4, (R)—N-(4-cyano-3-(trifluoromethyl)phenyl)-3-(1-(2-fluoro-5-((4-oxo-3,4-dihydrophthalazin-1-yl)methyl)benzoyl)piperidin-4-ylsulfonyl)-2-hydroxy-2-methylpropanamide]	1.03	0.0002	0.0006	21	> 30
CC1(C)C(=O)N(c2ccc([N+](=O)[O-])c(C(F)(F)F)c2)C(=O)N1CCNC(=O)c1cc(Cc2n[nH]c(=O)c3ccccc23)ccc1F [Compound 1.7, N-(2-(5,5-dimethyl-3-(4-nitro-3-(trifluoromethyl)phenyl)-2,4-dioxoimidazolidin-1-yl)ethyl)-2-fluoro-5-((4-oxo-3,4-dihydrophthalazin-1-yl)methyl)benzamide]	4.62	0.001	0.007	3	10
C[C@](O)(COC1CCN(C(=O)c2cc(Cc3n[nH]c(=O)c4ccccc34)ccc2F)CC1)C(=O)Nc1ccc(C#N)c(C(F)(F)F)c1 [Compound 1.5, (S)—N-(4-cyano-3-(trifluoromethyl)phenyl)-3-(1-(2-fluoro-5-((4-oxo-3,4-dihydrophthalazin-1-yl)methyl)benzoyl)piperidin-4-yloxy)-2-hydroxy-2-methylpropanamide]	6.67	0.0004	0.002	14	20
CC1(C)C(=O)N(c2ccc(C#N)c(C(F)(F)F)c2)C(=O)N1CCNC(=O)c1cc(Cc2n[nH]c(=O)c3ccccc23)ccc1F [Compound 1.8, N-(2-(3-(4-cyano-3-(trifluoromethyl)phenyl)-5,5-dimethyl-2,4-dioxoimidazolidin-1-yl)ethyl)-2-fluoro-5-((4-oxo-3,4-dihydrophthalazin-1-yl)methyl)benzamide]	0.503	0.001	0.01	5	17
CC1(C)C(=O)N(c2ccc(C#N)c(C(F)(F)F)c2)C(=S)N1CCNC(=O)c1cc(Cc2n[nH]c(=O)c3ccccc23)ccc1F [Compound 1.6, N-(2-(3-(4-cyano-3-(trifluoromethyl)phenyl)-5,5-dimethyl-4-oxo-2-thioxoimidazolidin-1-yl)ethyl)-2-fluoro-5-((4-oxo-3,4-dihydrophthalazin-1-yl)methyl)benzamide]	0.094	0.0006	0.005	6	10
